Like-named read-outs stand apart in the source and are kept apart here.
Key:
hSUMO-1 18-97 = molecular target: T1, hSUMO-1 18-97 (Homo sapiens, UniProt P63165); experiment: Fluorescence anisotropy competition assay, FITC-peg-SIM tracer / SUMO; assay type: binding; conditions: competition FA, 50 mM Tris, 150 mM NaCl, 25 nM tracer, 100 nM SUMO, read after 45 min, triplicate
T1 construct: 18-97; His-TEV (N, cleaved yes); made in house
Protocol: hSUMO-1 18-97 was expressed and purified as previously described from a pet19b His-TEV-SUMO-1 (18-97) construct with cleavage of the tag using TEV protease.4 […]
Fluorescence anisotropy assays were performed in 384-well plates (Greiner Bio-one). Each experiment was run in triplicate and the fluorescence anisotropy measured using a Perkin Elmer EnVisionTM 2103 MultiLabel plate reader, with excitation at 480 nm (30 nm bandwidth), polarised dichroic mirror at 505 nm and emission at 535 nm (40 nm bandwidth, S and P polarised). All assays were performed in 20 mM Tris, 100 mM NaCl, 0.1 mM DTT, pH 7.5 unless otherwise stated and data analysed following previously published methods.
Fluorescence anisotropy data was processed as described previously.[2] Briefly. the data from both the P (perpendicular intensity) and S (parallel intensity) channels, resulting from this measurement and corrected by subtracting the corresponding control wells, were used to calculate the intensity and anisotropy for each well following Equations 1 and 2: […]
For direct titration the average anisotropy (across three experimental replicates) and the standard deviation of these values were then calculated and fit to a logistic model using OriginPro 9.0 to determine the maximum and minimum anisotropies then the fraction bound calculated (Equation 3) and used to determine Kd (equation 4)
Lb= (r‒rmin)/λ(rmax‒r)+r‒rmin Equation 3
y= {(k+ x+[ FL])‒√{k+x+[FL] 2‒4x[FL]}}/2 Equation 4 r = anisotropy, I = total intensity, P = perpendicular intensity, S = parallel intensity, G = instrument factor which was set to 1 for all experiments, Lb = fraction ligand bound, λ = […]
(§1) For competition experiments, the anisotropies were determined as for the direct titration and then plotted against inhibitor concentration and fit (equation 5) to determine the IC50 and error […]
(§2) y = rmax + (rmin-rmax)/(1+(x/xo)p) Equation 5
Where xo represents the IC50 […]
(§3) Competition binding assays:
(§4) FA competition assays were performed in 384 well plates with the concentration of variant […]
(§5) with fixed protein and tracer concentrations. FITC-labelled peptide was added to each well to […]
For control wells, the tracer peptide was replaced with an identical volume of assay buffer.
The total volume in each well was 60 μL. […]

[1] = Solubility, qualitative test
Protocol: (1 picture or pasted object on this page, not shown here)
as §1, §2
Where xo represents the IC50
Fluorescence anisotropy direct titration assays were performed with protein concentration diluted over 16-24 points using 2-fold dilutions. Followed by addition of tracer peptide was added to the wells. For control wells, the tracer peptide was replaced with an identical volume of assay buffer. Plates were read after 45 minutes.
as §3, §4, §5
The total volume in each well was 60 μL. Plates were read after 45 minutes of incubation at […]
ITC experiments were carried out using a Microcal ITC200i instrument (Malvern) at 25°C in 20 mM Tris, 150 mM NaCl, pH 7.5 buffer. […] Data was analysed using Microcal Origin 8 and fitted to a one-binding site model
Spectra were recorded on a Chirascan circular dichroism spectropolarimeter (Applied Photophysics), at 20°C, using 1 mm cells and a scan speed of 5 nm/min. […]
Peptide solubility was assessed using a qualitative test. […]

T1 sequence (P63165 18-97): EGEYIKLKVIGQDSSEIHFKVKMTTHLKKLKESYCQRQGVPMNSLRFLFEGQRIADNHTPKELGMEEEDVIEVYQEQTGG

IC50 (hSUMO-1 18-97) [µM]	maximum solubility / concentration obtained ([1]; qualitative test) [mM]	maximum solubility / concentration obtained [1]	SMILES
14.8 ± 0.7	> 8	–	CC[C@H](C)[C@H](NC(=O)[C@@H](NC(=O)[C@H](CCC(=O)O)NC(=O)[C@H](CC(=O)O)NC(=O)[C@H](CCC(=O)O)NC(=O)[C@H](CC(N)=O)NC(=O)[C@H](CC(=O)O)NC(C)=O)C(C)C)C(=O)N[C@H](C(=O)N[C@H](C(=O)N[C@@H](Cc1c[nH]c2ccccc12)C(=O)N[C@@H](CCC(=O)O)C(=O)N[C@@H](CCCCN)C(=O)N[C@@H](CCCCN)C(N)=O)C(C)C)[C@@H](C)CC [SIM2705–2717I2708D]
–	–	~ 1 mM	CC[C@H](C)[C@H](NC(=O)[C@H](CCC(=O)O)NC(=O)[C@H](CC(N)=O)NC(=O)[C@H](CC(=O)O)NC(C)=O)C(=O)N[C@@H](CCC(=O)O)C(=O)N[C@H](C(=O)N[C@H](C(=O)N[C@H](C(=O)N[C@H](C(=O)N[C@@H](Cc1c[nH]c2ccccc12)C(=O)N[C@@H](CCC(=O)O)C(=O)N[C@@H](CCCCN)C(=O)N[C@@H](CCCCN)C(N)=O)C(C)C)[C@@H](C)CC)[C@@H](C)CC)C(C)C [SIM2705–2717]

From PMC8495968, “Towards optimizing peptide-based inhibitors of protein–protein interactions: predictive saturation variation scanning (PreSaVS)” (RSC Chemical Biology, 2021)
